Results from PubChem BioAssay (NCI).
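Compound exposure: 48 hours, 5 concentrations, 96-well plates. Here, GI50 denotes the concentration required for 50% inhibition of growth. The concentration for full growth arrest is given as TGI.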

Columns and labels:
Assay in all cases: NCI tumour cell line growth inhibition, 48 h
UACC-62 melanoma = test system: UACC-62 melanoma
K-562 leukemia = test system: K-562 leukemia
SF-295 CNS = test system: SF-295 CNS
CCRF-CEM leukemia = test system: CCRF-CEM leukemia
HCT-116 colon = test system: HCT-116 colon
A549 NSCLC = test system: A549 NSCLC
OVCAR-5 ovarian = test system: OVCAR-5 ovarian
SK-MEL-28 melanoma = test system: SK-MEL-28 melanoma
BT-549 breast = test system: BT-549 breast
NCI/ADR-RES ovarian = test system: NCI/ADR-RES ovarian

Compound	GI50 (UACC-62 melanoma) [µM]	TGI (UACC-62 melanoma) [µM]	GI50 (K-562 leukemia) [µM]	TGI (K-562 leukemia) [µM]	GI50 (SF-295 CNS) [µM]	TGI (SF-295 CNS) [µM]	GI50 (CCRF-CEM leukemia) [µM]	TGI (CCRF-CEM leukemia) [µM]	GI50 (HCT-116 colon) [µM]	TGI (HCT-116 colon) [µM]	GI50 (A549 NSCLC) [µM]	TGI (A549 NSCLC) [µM]	GI50 (OVCAR-5 ovarian) [µM]	TGI (OVCAR-5 ovarian) [µM]	GI50 (SK-MEL-28 melanoma) [µM]	TGI (SK-MEL-28 melanoma) [µM]	GI50 (BT-549 breast) [µM]	TGI (BT-549 breast) [µM]	GI50 (NCI/ADR-RES ovarian) [µM]	TGI (NCI/ADR-RES ovarian) [µM]
CCCCCCCCCCCCCCCCCC1=NCCN1CS(=O)(=O)O	16.9	35.1	3.93	> 100	3.55	16.5	3.96	> 100	10.4	30.3	12.5	31.2	15.4	32.7	19.2	34.7	19.5	37.7	16.1	35.3
CN(C)c1ccc(/C=C(/NC(=O)c2ccccc2)c2nc3ccc(Cl)cc3[nH]2)cc1	–	97.6	–	> 73.8	–	> 87.3	–	> 84	–	> 100	–	> 100	–	97.5	–	> 100	25.4	85.8	30.7	> 100
COc1ccccc1-n1c(-c2cc(O)ccc2C)cn2c3c(=O)[nH]c(=O)n(C)c3nc12	> 100	> 100	0.31	> 100	5.34	> 100	> 100	> 100	21.1	> 100	17.4	> 100	28.1	> 100	> 100	> 100	20.5	> 100	> 100	> 100
CN(C)c1ccc(C(=C2C=CC(=[N+](C)C)C=C2)c2ccc(N(C)C)cc2)cc1 (tested in a mixture with another compound)	–	1.24	0.047	2.86	0.0483	0.396	0.231	19.5	0.039	1.02	0.0326	0.688	0.559	1.77	0.141	1.37	0.188	0.84	0.912	–
COc1cc(NCCCCN=C(N)NC(N)=NC(C)C)c2ncccc2c1	10.3	24.3	3.65	25.8	23	> 91.1	4.57	27.3	2.26	11.1	35.4	> 100	17.3	> 88.3	12.1	24.7	9.6	23.9	> 100	> 100
CC(=O)OC1CC(n2cc(F)c(=O)[nH]c2=O)OC1CO (stereo not given)	–	> 22.4	–	> 100	–	> 89	–	> 100	–	> 100	–	> 90.8	–	> 100	–	> 100	–	> 100	–	> 100
CCCCCC(O)C1C(=O)OC(C)C(O)/C=C/C=C/C=C/C=C\C=C(\C)C(O)CC(O)CC(O)CC(O)CC(O)CC(O)CC1O (stereo not given)	> 100	> 100	> 100	> 100	> 100	> 100	> 100	> 100	> 100	> 100	> 100	> 100	> 100	> 100	> 100	> 100	> 100	> 100	> 100	> 100
C=C(C)[C@@H]1CC[C@]2(C)[C@H](C(=O)C=C3[C@@H]4C[C@](C)(C(=O)N5CCN(C)CC5)CC[C@]4(C)CC[C@]32C)[C@@]1(C)CCC#N	6.03	12.5	2.75	9.55	7.75	15.2	6.62	16.3	3.03	9.33	7.12	14.5	7.01	13.6	7.23	13.8	6.67	13.4	6.83	13.9
Cc1nc2sccn2c(=O)c1CCN1CCC(=C(c2ccc(F)cc2)c2ccc(F)cc2)CC1	6.73	20.5	5.18	26.2	13	28.7	0.559	26.3	5.36	20.3	12.9	29.1	15.2	29.4	13.4	26.9	9.38	24.5	13.8	32.9
